Measured values: patent US20230313217A1, “CHLOROPLAST TARGETING PEPTIDES AND CONJUGATES AND COMPOSITIONS THEREOF” (The Regents of the University of California, priority 2021, published 2023)
Ends that are not written are not given here.

How the values were obtained:
[1] = test system: chloroplasts in Arabidopsis leaves; assay: Confocal colocalization of nanomaterials with chloroplasts after foliar spray; format: in vivo, Arabidopsis thaliana
Procedure: In Vivo Imaging of Chloroplast Targeted Nanomaterials. Confocal fluorescence microscopy imaging was used to determine the colocalization between chloroplasts in Arabidopsis leaves and both targeted and nontargeted β-CDs and CY3-ds(GT)15 (SEQ ID NO: 6) DNA coated SWCNT (FIG. 3A,B). Nanomaterials were foliar sprayed on whole plants in a formulation containing 0.1% Silwet (v/v) (Table 1). Control confocal images of leaves treated with only 10 mM TES buffer have no background autofluorescence in CD and CY3-ds(GT)15 (SEQ ID NO: 6) DNA emission channels (FIG. 12). The level of colocalization of fluorescent emission from nanocarriers with chloroplasts was determined by Manders' coefficient analysis (COLOC2, ImageJ) (FIG. 3C). The localization of targeted nanomaterials (TP-β-CD and TP-CY3-ds(GT)15-SWCNT) with chloroplasts in leaf mesophyll cells was higher compared to nontargeted materials lacking the targeting peptide (β-CD and CY3-ds(GT)15-SWCNT). […] Previously, we reported an in vivo increase in colocalization of chloroplasts with heavy-metal-based quantum dots functionalized with chloroplast targeting biorecognition peptides,^16 indicating the robustness of this approach for a variety of targeted nanomaterials. […]
Confocal Fluorescence Microscopy. […]

whole plant cell DNA = settings: in vivo
Procedure: DNA was extracted from plant leaf tissue and prepared using a Quick-DNA Plant/Seed DNA Miniprep kit (Zymo) in leaf samples treated with nanomaterials from one to five days. Each DNA sample contained 150 mg of plant tissue or 1 mL of isolated chloroplast suspension collected as explained above. Samples were placed in liquid nitrogen-filled mortar and pestle, ground, and placed directly into a Zymo BashingBead Lysis Tube with 750 μL BashingBead Buffer. The mixture was homogenized on a mixer mill (Retsch MM 400) for 10 minutes at 28 Hz. The DNA extraction was performed according to the manufacturer's instructions (zymoresearch.com) and concentrations were measured using a Nanodrop ND-1000 Spectrophotometer. Samples were stored at −20° C. until used for the 8-OHdG DNA damage biomarker assay.
We determined the amount of oxidative DNA damage in plant leaves treated with nanomaterials for one day or five days using an enzyme-linked immunosorbent assay (ELISA) for 8-hydroxydeoxyguanosine (8-OHdG). The OxiSelect™ Oxidative DNA Damage ELISA Kit (Cat# STA-320, Cell Biolabs, inc.) quantifies the amount of 8-OHdG in isolated DNA samples from plant leaf tissue or isolated chloroplast suspensions. […] Sample absorbance was read at 450 nm on an Infinite MPlex plate reader (Tecan).

[2] = Hydrodynamic size by dynamic light scattering; format: physicochemical; settings: 10 mM TES buffer, pH 7
Procedure: The resulting PEI-SWCNT suspension was characterized by measuring the absorbance spectra on a UV-vis absorbance spectrophotometer (UV-2600, Shimadzu). The quality of the SWCNT suspension was determined by analyzing absorbance peaks at 632 nm. This measurement was performed with triplicates. The concentration of the PEI-SWCNT was determined spectrophotometrically using the absorption value at 632 nm and utilizing the equation (absorbance at 632 nm/extinction coefficient of 0.036)=mg L^−1. The final concentration obtained after purification ranged from 18 to 30 mg/L. The nanoparticle ζ potential was measured using a Zetasizer (Nano ZS, Malvern Instruments) in samples suspended in 10 mM TES buffer pH 7.0, with 0.1 mM NaCl. The hydrodynamic size was measured using Zetasizer (Nano ZS, Malvern Instruments) in samples suspended in a 10 mM TES buffer at pH 7.
Characterization of Nanomaterials. All nanomaterials were characterized by absorbance UV-vis spectroscopy (UV-2600 Shimadzu), hydrodynamic size (Nano S), and ζ potential (Nano ZS). The nanomaterial ζ potential and hydrodynamic diameter were measured in a 10 mM TES buffer (pH 7.0). The ζ potential measurements were performed in 0.1 mM NaCl to improve conductivity and analyzed by the Hückel approximation model.^111 CD fluorescence emission was collected using a fluorescence spectrometer (Horiba PTI QM-400). […]

TP-β-CD: carbon dots with β-cyclodextrin molecular baskets covalently bonded to chloroplast targeting peptide MASSMLSSATMVGGC (SEQ ID NO:5) (also: covalently bonded to carbon dots with β-cyclodextrin, site not given here)
colocalization rates of nanomaterials with chloroplasts ([1]; foliar spray, CD 20 mg/L, ds(GT)15-SWCNT 2 mg/L, Manders' coefficient, FIG. 3C): 70.0±9.46%
delivery, % of chloroplasts in leaves ([1]; summary of Example 1): 70%
increase in oxidative damage to whole plant cell DNA (whole plant cell DNA): 2 fold
hydrodynamic size (DLS) [2]: 27.8±5.8 nm
